Data taken from patent US20200022951A1, “MULTIVITAMIN COMPOSITION FOR IMPROVING VERBAL FLUENCY, DECREASING PERFORMANCE ANXIETY SYMPTOMS AND METHOD FOR PREPARING SAME” (priority 2017, published 2020).

Test system: individuals with performance anxiety
Assay: trials using the composition: anxiety and speech fluency
Format: in vivo
Details: as component of the composition of the invention

NCCCC[C@H](N)C(=O)O [L-Lysine]
effect on anxiety amelioration: positive effect
